These results are taken from patent US20240246967A1, “AXL COMPOUNDS” (ARCUS BIOSCIENCES, INC., priority 2021, published 2024).

By IC50 is commonly meant the concentration that inhibits the measured activity by half. Read a low IC50 as inhibition by little substance.

Experiment [1] concerns the target T1, Axl (Homo sapiens, UniProt P30530).
T1 sequence (P30530 26-894): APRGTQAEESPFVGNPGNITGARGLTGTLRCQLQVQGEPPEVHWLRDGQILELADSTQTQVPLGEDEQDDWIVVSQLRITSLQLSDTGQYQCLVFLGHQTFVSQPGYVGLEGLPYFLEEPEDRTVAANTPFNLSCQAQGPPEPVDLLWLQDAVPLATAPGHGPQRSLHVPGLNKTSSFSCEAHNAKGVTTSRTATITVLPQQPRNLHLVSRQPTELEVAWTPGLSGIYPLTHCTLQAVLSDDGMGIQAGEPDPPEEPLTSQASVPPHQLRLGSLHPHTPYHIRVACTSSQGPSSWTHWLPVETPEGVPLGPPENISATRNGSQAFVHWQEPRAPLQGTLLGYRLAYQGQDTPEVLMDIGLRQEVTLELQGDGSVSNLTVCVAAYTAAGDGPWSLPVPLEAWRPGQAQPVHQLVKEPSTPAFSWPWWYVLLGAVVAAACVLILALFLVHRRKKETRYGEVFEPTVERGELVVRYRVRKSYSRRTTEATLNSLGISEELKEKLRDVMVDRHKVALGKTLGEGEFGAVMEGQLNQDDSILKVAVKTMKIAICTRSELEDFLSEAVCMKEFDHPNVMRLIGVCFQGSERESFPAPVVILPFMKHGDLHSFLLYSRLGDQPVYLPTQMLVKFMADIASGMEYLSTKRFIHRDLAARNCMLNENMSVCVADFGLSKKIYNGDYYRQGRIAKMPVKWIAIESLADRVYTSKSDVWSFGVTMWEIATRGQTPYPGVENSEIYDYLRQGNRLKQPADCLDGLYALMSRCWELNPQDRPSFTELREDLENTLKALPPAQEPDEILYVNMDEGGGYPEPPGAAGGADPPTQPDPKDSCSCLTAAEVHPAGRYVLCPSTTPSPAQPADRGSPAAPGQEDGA
The experiment in a line: Axl NanoBRET intracellular kinase assay (intracellular binding, Cell Binding). Particulars: HEK-293 cells transfected with Axl-NanoLuc fusion vector; 0.35 μM K-5 NanoBRET tracer. Also noted: host or cells: HEK-293. In a few lines:
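In intact HEK-293 cells transiently expressing NanoLuc-tagged Axl, compounds compete with the K-5 tracer (0.35 μM, 2 h, 37 °C) after a 1 h preincubation. Readout is the 610/450 nm emission ratio.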

Experiment [2] deals with T1, Axl. Kind of experiment: HTRF KinEASE-TK biochemical potency assay, AXL. Set-up: purchased Invitrogen. Particulars: 5 nM AXL, 700 μM ATP, 800 nM TK Substrate-biotin. An outline of the steps:
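Final conditions: 5 nM AXL, 1 nM TYRO3 or MER, 50 mM HEPES pH 7.4, 10 mM MgCl2, 0.01% BSA, 1 mM DTT, 700 μM ATP. Reaction ran 2 h at RT after 1 h preincubation with compound; HTRF signal read at 665/620 nm.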
For orientation: TR-FRET usually uses a lanthanide donor and a delayed reading to cut background.

On to `NC(=O)c1ccc(-c2n[nH]c3ncc(-c4ccc5c(c4)CCC(N4CCCC4)CC5)cc23)cc1C(F)(F)F` (centres unmarked) [Example 80, 4-(5-(7-(Pyrrolidin-1-yl)-6,7,8,9-tetrahydro-5H-benzo[7]annulen-2-yl)-1H-pyrazolo[3,4-b]pyridin-3-yl)-2-(trifluoromethyl)benzamide], for which the IC50 at Axl [1] and against Axl [2] was < 100 nM each time.

On to `NC(=O)c1ccc(-c2n[nH]c3ncc(-c4ccc5c(c4)CCC(N4CCCC4)CC5)cc23)cc1F` (centres unmarked) [Example 81, 2-Fluoro-4-(5-(7-(pyrrolidin-1-yl)-6,7,8,9-tetrahydro-5H-benzo[7]annulen-2-yl)-1H-pyrazolo[3,4-b]pyridin-3-yl)benzamide], for which the IC50 on Axl [1] and against Axl [2] was < 100 nM throughout.

Turning to `O=C(c1ccc(-c2n[nH]c3ncc(-c4ccc5c(c4)CC[C@@H](N4CCCC4)CC5)cc23)cc1Cl)N1CCNCC1` [Example 82, (S)-(2-Chloro-4-(5-(7-(pyrrolidin-1-yl)-6,7,8,9-tetrahydro-5H-benzo[7]annulen-2-yl)-1H-pyrazolo[3,4-b]pyridin-3-yl)phenyl)(piperazin-1-yl)methanone], the IC50 at Axl [1] and at Axl [2] was < 100 nM each time.

Turning to `Cc1cc(-c2n[nH]c3ncc(-c4ccc5c(c4)CC[C@@H](N4CCCC4)CC5)cc23)cc(F)c1C(N)=O` [Example 83, (S)-2-Fluoro-6-methyl-4-(5-(7-(pyrrolidin-1-yl)-6,7,8,9-tetrahydro-5H-benzo[7]annulen-2-yl)-1H-pyrazolo[3,4-b]pyridin-3-yl)benzamide], the IC50 at Axl [1] and on Axl [2] was < 100 nM in each case.

As for `NC(=O)c1ccc(-c2n[nH]c3ncc(-c4ccc5c(c4)CC[C@@H](N4CCCC4)CC5)cc23)cc1Cl` [Example 84, (S)-2-Chloro-4-(5-(7-(pyrrolidin-1-yl)-6,7,8,9-tetrahydro-5H-benzo[7]annulen-2-yl)-1H-pyrazolo[3,4-b]pyridin-3-yl)benzamide], the IC50 on Axl [1] and against Axl [2] was < 100 nM in each case.

With `O=C(c1ccc(-c2n[nH]c3ncc(-c4ccc5c(c4)CC[C@@H](N4CCCC4)CC5)cc23)cc1Cl)N1CCC(O)CC1` [Example 85, (S)-(2-Chloro-4-(5-(7-(pyrrolidin-1-yl)-6,7,8,9-tetrahydro-5H-benzo[7]annulen-2-yl)-1H-pyrazolo[3,4-b]pyridin-3-yl)phenyl)(4-hydroxypiperidin-1-yl)methanone], the IC50 on Axl [1] and against Axl [2] was < 100 nM each time.

For the compound `COc1cc(-c2n[nH]c3ncc(-c4ccc5c(c4)CCC(C)(N4CCC[C@H]4C)CC5)cc23)ccc1S(N)(=O)=O` (stereo partly drawn) [Example 87, 2-Methoxy-4-(5-(7-methyl-7-((R)-2-methylpyrrolidin-1-yl)-6,7,8,9-tetrahydro-5H-benzo[7]annulen-2-yl)-1H-pyrazolo[3,4-b]pyridin-3-yl)benzenesulfonamide], the IC50 is 100 to 1000 nM at Axl [1] and < 100 nM on Axl [2].

Take `C[C@@H]1CCCN1C1(C)CCc2ccc(-c3cnc4[nH]nc(-c5ccc(C(=O)NC6CCOCC6)cc5)c4c3)cc2CC1` (stereo partly drawn) [Example 88, 4-(5-(7-Methyl-7-((R)-2-methylpyrrolidin-1-yl)-6,7,8,9-tetrahydro-5H-benzo[7]annulen-2-yl)-1H-pyrazolo[3,4-b]pyridin-3-yl)-N-(tetrahydro-2H-pyran-4-yl)benzamide]: the IC50 on Axl [1] and on Axl [2] was < 100 nM each time.

Turning to `COC1CCN(C(=O)c2ccc(-c3n[nH]c4ncc(-c5ccc6c(c5)CCC(C)(N5CCC[C@H]5C)CC6)cc34)cc2)CC1` (stereo partly drawn) [Example 89, (4-Methoxypiperidin-1-yl)(4-(5-(7-methyl-7-((R)-2-methylpyrrolidin-1-yl)-6,7,8,9-tetrahydro-5H-benzo[7]annulen-2-yl)-1H-pyrazolo[3,4-b]pyridin-3-yl)phenyl)methanone], the IC50 on Axl [1] and at Axl [2] was < 100 nM each time.

Turning to `Cc1cc2c(cc1-c1cnc3[nH]nc(-c4ccc(C(C)(C)O)c(Cl)c4)c3c1)CCC(N1CCC[C@H]1C)CC2` (stereo partly drawn) [Example 90, 2-[2-Chloro-4-(5-{3-methyl-7-[(2R)-2-methylpyrrolidin-1-yl]-6,7,8,9-tetrahydro-5H-benzo[7]annulen-2-yl}-1H-pyrazolo[3,4-b]pyridin-3-yl)phenyl]propan-2-ol], the results for the 50% inhibitory concentration (IC50) at Axl [1] and on Axl [2] were 100 to 1000 nM and < 100 nM, respectively.

As to `NS(=O)(=O)c1ccc(-c2n[nH]c3ncc(-c4ccc5c(c4)CC[C@@H](N4CCCC4)CC5)cc23)cc1Cl` [Example 91, (S)-2-Chloro-4-(5-(7-(pyrrolidin-1-yl)-6,7,8,9-tetrahydro-5H-benzo[7]annulen-2-yl)-1H-pyrazolo[3,4-b]pyridin-3-yl)benzenesulfonamide], the half-inhibitory concentration (IC50) at Axl [1] and against Axl [2] was < 100 nM in each case.

For `NS(=O)(=O)c1ccc(-c2n[nH]c3ncc(-c4ccc5c(c4)CCN(C4CCCC4)CC5)cc23)cc1Cl` [Example 92, 2-Chloro-4-(5-(3-cyclopentyl-2,3,4,5-tetrahydro-1H-benzo[d]azepin-7-yl)-1H-pyrazolo[3,4-b]pyridin-3-yl)benzenesulfonamide], the concentration for half-maximal inhibition (IC50) is 100 to 1000 nM on Axl [1] and < 100 nM against Axl [2].

As for `C[C@@H]1CCCN1C1(C)CCc2ccc(-c3cnc4[nH]nc(-c5ccc(S(N)(=O)=O)c(Cl)c5)c4c3)cc2CC1` (stereo partly drawn) [Example 93, 2-Chloro-4-(5-(7-methyl-7-((R)-2-methylpyrrolidin-1-yl)-6,7,8,9-tetrahydro-5H-benzo[7]annulen-2-yl)-1H-pyrazolo[3,4-b]pyridin-3-yl)benzenesulfonamide], the IC50 at Axl [1] and at Axl [2] was < 100 nM each time.
